Values quoted from earlier work in patent US12364698B2 (Janssen Pharmaceutica NV, priority 2015, dated 2025).

Details: at a pH of about 7

In the case of `C=CC(=O)N1CCC[C@@H](n2nc(-c3ccc(Oc4ccccc4)cc3)c3c(N)ncnc32)C1` [Ibrutinib, 1-[(3R)-3-[4-amino-3-(4-phenoxyphenyl)-1H-pyrazolo[3,4 d]pyrimidin-1-yl]-1-piperidinyl]-2-propen-1-one], the partition coefficient is given as “about 4”.
